Results reported in article PMC3762611 (International Journal of Tryptophan Research : IJTR, 2013).

Biological target: indoleamine 2,3-dioxygenase 1 (IDO1) (Homo sapiens, UniProt P14902)
Assay type: biochemical

Sequence of indoleamine 2,3-dioxygenase 1 (IDO1) (P14902 whole entry): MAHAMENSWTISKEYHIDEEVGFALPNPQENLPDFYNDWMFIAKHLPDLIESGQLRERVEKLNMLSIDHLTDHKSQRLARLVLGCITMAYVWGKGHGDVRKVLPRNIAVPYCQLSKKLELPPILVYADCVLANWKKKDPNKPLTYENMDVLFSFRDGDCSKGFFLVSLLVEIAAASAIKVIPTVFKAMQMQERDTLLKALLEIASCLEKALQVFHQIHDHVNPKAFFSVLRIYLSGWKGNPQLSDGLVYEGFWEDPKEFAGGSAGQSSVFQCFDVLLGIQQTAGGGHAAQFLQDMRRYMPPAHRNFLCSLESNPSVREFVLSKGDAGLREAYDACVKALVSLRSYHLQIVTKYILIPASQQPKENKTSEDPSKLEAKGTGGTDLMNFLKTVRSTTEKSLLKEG

Compound CC1(C)CCC2=C(O1)c1ccccc1C(=O)C2=O [β-lapachone, 3,4-dihydro-2,2-dimethyl-2H-naphthol[1,2-b]pyran-5,6-dione] has a Ki of 450 nM.
